The source of these data is patent US20170151215A1, “USE OF ROTIGOTINE FOR TREATING THE RESTLESS LEG SYNDROME” (UCB PHARMA GMBH, priority 2002, published 2017).

For series [1], the system named is Restless Leg Syndrome (RLS). The conditions noted are these: cited from earlier work; for effectiveness in RLS / side effects: short-term therapy studies; for side effects: usually in the beginning and as a function of the dosage.
The subject of series [2] is patients suffering from moderate to very severe idiopathic Restless Leg Syndrome. Nature of the series: placebo-controlled, double-blind, randomized clinical test of rotigotine TTS in Restless Leg Syndrome patients. The class given is in vivo, human. The settings on record: for Reduction of the average IRLSSG Value as compared to Placebo Treatment by Day 8: 8 days treatment. The text has this:
The rotigotine TTS produced per one of the above implementation examples was investigated in placebo-controlled, double-blind, randomized clinical tests at several centers, covering in a study with triple-branched parallel groups 63 patients who were suffering from moderate to very severe idiopathic Restless Leg Syndrome conditions.
The average age of the patients was 58.3 years. Randomization in the three treatment groups in terms of gender, age and severity of prior illnesses was reasonably balanced.
Over a treatment period of eight (8) days the patients of one group were treated with 5 cm^2 TTS and the patients of another group were treated with 10 cm^2 TTS. For a comparison the patients in the placebo group were treated with a placebo TTS. Within 24 hours, each of the above-mentioned drug-containing TTS's released 2.25 mg and, respectively, 4.5 mg rotigotine to the patient concerned.
As a result of the prespecified primary effectiveness the activities of daily life and the motoricity had changed, based on the generally accepted rating scale of the International Restless Leg Syndrome Study Group (IRLSSG), from the initial value to that in the concluding treatment evaluation (8th day).
On the basis of 10 questions, the IRLSSG measures and rates the following clinical parameters in Restless Leg patients:
The overall IRLSSG rating is derived from the individual values as follows:
First, an initial starting value is determined for each patient participating in the study. This is done by adding up the individual IRLSSG parameter values as of Day 0, i.e. before the treatment. Over the course of the treatment the IRLSSG values are compared with the starting value and any changes from that starting value are recorded. Finally, the average improvement of the IRLSSG value as of Day 8 over the starting value is determined by calculating the average of all test subjects. The resulting value is called CAS—(complete analysis set) randomized average change from the starting value of the overall IRLSSG rating.
Patients suffering from the Restless Leg Syndrome have been known to display a relatively strong response to placebos, meaning that even when treated with placebos these Restless Leg Syndrome patients show a certain improvement of their IRLSSG values. It is therefore important to compare any effect of the drug treatment with the degree of the IRLSSG improvement obtained through placebo treatment over the same time period. Thus, the final assessment of the improvement takes into account the effect of a placebo treatment during the same time period.

As to `CC(C)C[C@H]1C(=O)N2CCC[C@H]2[C@]2(O)O[C@](NC(=O)[C@@H]3C[C@@H]4c5cccc6[nH]cc(c56)C[C@H]4N(C)C3)(C(C)C)C(=O)N12` [alpha dihydroergocryptine], in series [1], the “effectiveness in RLS” value is given as “effective” and the side effects entry is recorded as “nausea, vomiting, dizziness, hypotension, constipation or insomnia”.
As to `CCCN(CCC)CCc1cccc2c1CC(=O)N2` [ropinirol], in series [1], the “effectiveness in RLS” value was “effective” and the side effects entry is reported as “nausea, vomiting, dizziness, hypotension, constipation or insomnia”.
With `CCCN(CCc1cccs1)[C@H]1CCc2c(O)cccc2C1` [Rotigotine, (-)-5,6,7,8-tetrahydro-6-[propyl [2-(2-thienyl)ethyl]amino]-1-naphtol], the “Reduction of the average IRLSSG Value as compared to Placebo Treatment by Day 8” value in series [2] (5 cm^2 TTS, 2.25 mg rotigotine per 24 hours, p (one side) 0.09) is 3.6; in series [2] (10 cm^2 TTS, 4.5 mg rotigotine per 24 hours, p (one side) 0.04), 6.3. Moreover, in series [2] (administered via the TTS), the “skin reactions at the point of application” value was “generally very minor”. Also, the tolerability entry in series [2] (administered via the TTS) was “generally well tolerated”; in series [2] (administered via the TTS, listed as rotigotine) it was “well tolerated and safe”. Moreover, in series [2] (end of the 8-day treatment, both patient groups (5 cm^2 and 10 cm^2 TTS)), the “subjective symptoms (tingling, cramps and pain in the legs, restlessness during the night, difficulties falling or remaining asleep)” value is “either disappeared or diminished to a tolerable minimum”. Besides, in series [2] (patient reports, as a function of the dose administered), the “daytime weariness, nausea, dizziness, vomiting, insomnia caused by the treatment” value is reported as “did not or only to a very minimal extent cause”. Further, the “clinical improvement in patients in a moderate to severe stage of Restless Leg Syndrome” value in series [2] (transdermally administered once daily) is on record as “distinct clinical improvement”.
Consider `N[C@@H](Cc1ccc(O)c(O)c1)C(=O)O` [L-DOPA, levodopa], for which the “effect on the disorder (RLS)” value in series [1] (long-term therapy) is “clear mitigation of the disorder”.
In the case of `CCCN1C[C@H](CSC)C[C@@H]2c3cccc4[nH]cc(c34)C[C@H]21` [pergolide], in series [1], the “effectiveness in RLS” value is recorded as “effective” and the side effects entry is recorded as “nausea, vomiting, dizziness, hypotension, constipation or insomnia”.
For the compound `CC(C)C[C@H]1C(=O)N2CCC[C@H]2[C@]2(O)O[C@](NC(=O)[C@@H]3C=C4c5cccc6[nH]c(Br)c(c56)C[C@H]4N(C)C3)(C(C)C)C(=O)N12` [bromocriptine], the side effects result in series [1] is “nausea, vomiting, dizziness, hypotension, constipation or insomnia”.
`Clc1cccc(Cl)c1NC1=NCCN1` [clonidine, 2-(2,6-dichloroanilino)-4,5-dihydroimidazol]: in series [1] (treatment of RLS), the “frequency of waking up” value is on record as “no effect”, the “periodic leg movement during sleep (PLMS)” value is “no effect”, the quality of sleep entry is listed as “no effect” and the soporiferous latency entry is reported as “reduced”.
As to `CCN(CC)C(=O)N[C@H]1C=C2c3cccc4[nH]cc(c34)C[C@H]2N(C)C1` [lisuride], in series [1], the “effectiveness in RLS” value was “effective” and the side effects result is recorded as “nausea, vomiting, dizziness, hypotension, constipation or insomnia”.
`C=CCN1C[C@H](C(=O)N(CCCN(C)C)C(=O)NCC)C[C@@H]2c3cccc4[nH]cc(c34)C[C@H]21` [cabergolin]: in series [1], the “effectiveness in RLS” value is “effective” and the side effects entry was “nausea, vomiting, dizziness, hypotension, constipation or insomnia”.
Take `CCCN[C@H]1CCc2nc(N)sc2C1` [pramipexol]: the serious side effect result in series [1] (in vivo) is “Attacks of drowsiness”. In series [1], the “effectiveness in RLS” value is given as “effective” and the side effects result is on record as “nausea, vomiting, dizziness, hypotension, constipation or insomnia”.
